Data taken from patent EP1044000B1, “COMBINATION THERAPY FOR THE TREATMENT OF AIDS” (MERCK & CO., INC., priority 1997, dated 1999).

Tested on: wild-type HIV-1
Assay: Cell Spread Assay (described in US 5,646,148)
Type: cell-based
Settings: against wild-type HIV-1

CC(C)(C)NC(=O)[C@@H]1CN(Cc2cccnc2)CCN1C[C@@H](O)C[C@@H](Cc1ccccc1)C(=O)N[C@H]1c2ccccc2C[C@H]1O [Indinavir, N-(2(R)-hydroxy-1(S)-indanyl)-2(R)-phenylmethyl-4-(S)-hydroxy-5-(1-(4-(3-pyridylmethyl)-2(S)-N'-(t-butylcarboxamido)-piperazinyl))-pentaneamide]
CIC95: 50 nM
